{"source": "patent EP1690525B1", "about": "“Gamma-polyglutamate hydrogels for use as super moisturizers in cosmetic and personal care products” (Tung Hai Biotechnology Corporation, priority 2005, dated 2006)", "key": {"[1]": {"test_system": "outside surface of the upper arm skin of a test panelist", "assay": "Skin irritation patch test, Draize method", "type": "in vivo, human", "settings": "5.0% in facial moisture mask; patched 24 hours", "description": "The small molecular weight γ-polyglutamate in […] with 200,000 to 400,000 daltons (designated as LM), high molecular weight γ-polyglutamate in Ca^++ form with 1.15x10^6 to 1.35x10^6 daltons (designated as HM), and γ-polyglutamate hydrogel (prepared from γ-polyglutamate in Na^+ form) with molecular weight from 15x10^6 to 100x10^6 or higher (cross-linked with gamma ray irradiation) were used as super moisturizers. The species and proportions of the ingredients contained in the exemplified facial moisture mask formulation are listed in Table 5. Table 5. Facial Moisture Mask Formulation\nThe moisture mask samples of 25 cm^2 were taken from experimental example 4 and patched evenly on the outside surface of the upper arm skin of a test panelist. A group of 10 panelists participated in this test. After 24 hours, then the mask samples were removed and the skin was observed carefully for any degree of irritation, and the results were recorded according to Draize method (see Appraisel of the Safety of Chemicals in Food, Drugs and Cosmetics. Pharmacolo. 93:377-392, 1948, Draize, F. et al.). Table 6. The film formation time, capacity increase ratio (%), the pH value of the skin, and the Draize score after applying facial moisture masks"}, "[2]": {"test_system": "outside skin surface of the arm of a test panelist", "assay": "Moisture retention of the skin after peeling off facial moisture mask (capacitance, Skin Analysis SHP88)", "type": "in vivo, human", "settings": "5.0% in facial moisture mask; mask film peeled off after 15 minutes; 23°C, RH 65%"}, "Pig skin [3]": {"test_system": "Pig skin", "assay": "Ex-vivo pig skin: skin moisture retention by corneometry", "settings": "6.5% in skin moisture cream, 23°C and RH 60%", "experimental": "Table 9. Skin moisture cream formulation.\nPig skin was used for this experiment. The skin moisture was measured at 23 °C under an environment of relative humidity (RH) of 60% with a probe of corneometer HM99 of Courage^+Khazaka Electronic Gmbh, Germany."}, "Pig skin [4]": {"test_system": "Pig skin", "assay": "Ex-vivo pig skin: Trans-Epidermal-Water-Loss (TEWL)", "design": "unit not given here", "settings": "6.5% in skin moisture cream"}, "tyrosinase": {"test_system": "tyrosinase", "assay": "Inhibition of tyrosinase activity (absorbency at 475 nm)", "type": "biochemical", "settings": "1.0% sample", "description": "Although the formation of black pigment melanin on skin is complicated, it is generally realized that tyrosine is oxidized to DOPA (Dihydroxy Phenyalanine) by the catalysis of tyrosinase from melansome of melanocyte. The DOPA is further oxidized and finally converted into colored melanin-protein complex. The small molecular weight γ-polyglutamate in Na^+ form with 200,000 to 350,000 daltons (designated as LM) and high molecular weight γ-polyglutamate in Na^+ form with 1.15x10^6 to 1.35x10^6 daltons (designated as HM) were used in this experiment to determine the effectiveness in inhibiting the tyrosinase activity. • a. […] Sample of the reaction solution is then taken for measuring the absorbency at 475 nm, and recorded as At. • b. Determination of the blank absorbance of tyrosinase solutuion: • Replace 0.1 ml of buffer solution with tyrosinase solution, and repeat the same procedure in item (a), and record the absorbency at 475 nm as A1. • c. Replace 1 ml sample solution with buffer solution, and repeat the same procedure in item (a), and record the absorbance at 475 nm as Ab. • d. Determination of total blank absorbance of test solution: • Replace 1 ml sample solution with buffer solution, and 0.1 ml of tyrosinase solution with buffer solution, and repeat the procedure in item (a), and record the absorbency at 475 nm as Ao. • e. […]"}, "[5]": {"test_system": "outside skin surface of the panelist's arm", "assay": "Skin moisturization by corneometer HM99 (ΔCU=CU2-CU1)", "type": "in vivo, human", "settings": "2% in skin moisture cream", "experimental": "Table 7: Skin moisture cream formulation. The cosmetic products from experimental example 6 were evaluated for the effectiveness of skin moisturization. A group of 5 test panelists participated in this experiment. The panelists were first put in a room with a temperature at 22 °C and relative humidity (RH) 60% for 15 minutes. A probe of the corneometer HM99 of Courage^+Khazaka Electronic Gmbh, Germany was used to measure the skin moisture of the outside skin surface of the panelist's arm to determine the base line as (CU1). A sample of 0.2g from the formulation of experimental example 6 was evenly spread over an area of 25 cm^2 of the skin surface for 2 minutes before the excess formulation sample was removed. After 2 hours the skin moisture was measured again and recorded as (CU2). Before the measurement the panelists were placed in a room with temperature at 22 °C and RH 60% for 15 minutes. The atteration of skin moisture is then calculated as ΔCU=CU2-CU1."}, "[6]": {"test_system": "inside skin surface of a test panelist's arm", "assay": "Water retention on skin after skin vital moisture cream (capacitance, Skin Analysis SHP88)", "type": "in vivo, human", "settings": "5% in skin vital moisture cream, 22°C and RH 65%", "experimental": "Table 2: Skin vital moisture cream formulation. […] A sample of 0.2g from each of the 5 products was evenly spread over an area of about 25 cm^2 on the inside skin surface of a test panelist's arm. A group of 10 panelists participated in this test. The water retention on the skin surface was measured at 23 °C under an environment of relative humidity of 60%, with a probe of Skin Analysis SHP88 made by Courage ^+Khazaka Electronic Gmbh, Germany. […] Table 3. The change of moisture retention over time after applying vital moisture creams, was expressed in terms of capacitance increase ratio, %, measured at 22°C and RH 65%."}}}
{"molecule": "CC(O)CCO", "note": "(stereo not drawn) [1,3-BG, 1,3-Butyl Glycol]", "values": [{"measurement": "Draize Score", "setting": "[1]", "result": 0}, {"measurement": "Capacitance Increase Ratio, %", "setting": "[2]", "result": 73.2, "unit": "%"}]}
{"molecule": "OCC(O)CO", "note": "[Glycerol]", "values": [{"measurement": "Difference Corneometry, %", "setting": "Pig skin [3]; Time 0 hour", "result": "48.. %"}, {"measurement": "Difference Corneometry, %", "setting": "Pig skin [3]; Time 1 hour", "result": 32, "unit": "%"}, {"measurement": "Difference Corneometry, %", "setting": "Pig skin [3]; Time 2 hour", "result": 20, "unit": "%"}, {"measurement": "Difference Corneometry, %", "setting": "Pig skin [3]; Time 4 hour", "result": 17, "unit": "%"}, {"measurement": "Difference Corneometry, %", "setting": "Pig skin [3]; Time -1 hour", "result": 100, "unit": "%"}, {"measurement": "Trans-Epidermal-Water-Loss (TEWL)", "setting": "Pig skin [4]; Time 0 hour", "result": "21.0."}, {"measurement": "Trans-Epidermal-Water-Loss (TEWL)", "setting": "Pig skin [4]; Time 1 hour", "result": 19.5}, {"measurement": "Trans-Epidermal-Water-Loss (TEWL)", "setting": "Pig skin [4]; Time 2 hour", "result": 19.0}, {"measurement": "Trans-Epidermal-Water-Loss (TEWL)", "setting": "Pig skin [4]; Time 2 hour, listed as glycerol", "result": 10.0}, {"measurement": "Trans-Epidermal-Water-Loss (TEWL)", "setting": "Pig skin [4]; Time 4 hour", "result": 17.5}, {"measurement": "Trans-Epidermal-Water-Loss (TEWL)", "setting": "Pig skin [4]; Time -1 hour", "result": 24.7}]}
{"molecule": "O=c1cc(CO)occ1O", "note": "[Kojic Acid]", "values": [{"measurement": "Inhibition of Tyrosinase Activity, %", "setting": "tyrosinase", "result": 100.0, "unit": "%"}]}
{"molecule": "C[N+](C)(C)CC(=O)O", "note": "[Natural Betaine]", "values": [{"measurement": "Increase in Skin Moisture ΔCU", "setting": "[5]; after 2 hours, 22 °C, RH 60%", "result": 12.3}, {"measurement": "Relative ΔCU %", "setting": "[5]; relative to 5% Glycerol = 100", "result": 164, "unit": "%"}]}
{"molecule": "CC(O)CO", "note": "(stereo not drawn) [Propylene Glycol]", "values": [{"measurement": "Capacitance Increase Ratio, %", "setting": "[6]; Time 0 min", "result": 0, "unit": "%"}, {"measurement": "Capacitance Increase Ratio, %", "setting": "[6]; Time 5 min", "result": 105, "unit": "%"}, {"measurement": "Capacitance Increase Ratio, %", "setting": "[6]; Time 10 min", "result": 57, "unit": "%"}, {"measurement": "Capacitance Increase Ratio, %", "setting": "[6]; Time 20 min", "result": 51, "unit": "%"}, {"measurement": "Capacitance Increase Ratio, %", "setting": "[6]; Time 40 min", "result": 40, "unit": "%"}, {"measurement": "Capacitance Increase Ratio, %", "setting": "[6]; Time 80 min", "result": 38, "unit": "%"}, {"measurement": "Capacitance Increase Ratio, %", "setting": "[6]; Time 120 min", "result": 36, "unit": "%"}]}
{"molecule": "O=C1O[C@H]([C@@H](O)CO)C(O)=C1O", "note": "[Vitamin C]", "values": [{"measurement": "Inhibition of Tyrosinase Activity, %", "setting": "tyrosinase", "result": 99.4, "unit": "%"}]}
